This note sets out measurements from patent US20230382863A1, “MEK INHIBITORS AND USES THEREOF” (Ikena Oncology, Inc., priority 2022, published 2023).

For data set [1], the system named is pERK HCT-116 (G13D). The data set is described as follows: pERK HCT-116 (G13D) ICW (4 hour). Format: cell-based.
Data set [2] concerns the target uMEK/BRAF (Homo sapiens (Human), UniProt Q02750). Briefly: MEK-RAF Binding Assay (uMEK/BRAF HTRF).
The target of data set [3] is MEK1-CRAF complex (Homo sapiens (Human), UniProt Q02750). The data set is described as follows: Stabilization of MEK1-CRAF complex assay (AlphaLISA). Format: binding. As to the method:
MEK1 was diluted to 4 nM, and nickel chelate donor beads and glutathione acceptor beads were diluted to 80 μg/mL. CRAF was diluted to a top concentration of 160 nM, which was subsequently diluted to 80, 40, 20, 10, 5, 2.5, 1.25, and 0.625 nM through 1:2 serial dilution.
Exemplary MEK inhibitor compounds (0, 0.01, 0.1, or 1 μM) were added to a 384-AlphaPlate (PerkinElmer, 6008350) by a digital liquid dispenser (Tecan D300e) based on a total volume of 20 μL reaction mixture.
5 μL 4×MEK1 stock solution was added to wells A1-P20 by multichannel pipettes. The plate was sealed with clear olefin sealing tape (Thermo Scientific, 232701), centrifuged at 1000 rpm for 1 minute, and incubated at room temperature for 30 minutes.
5 μL 4×CRAF stock solution at different concentrations or 5 μL or 10 μL AlphaLISA buffer was added by multichannel pipettes. The plate was sealed, centrifuged at 1000 rpm for 1 minute, and incubated at room temperature for 60 minutes.
5 μL 4×glutathione acceptor beads were first added to all wells by multichannel pipettes. The ambient light was subsequently adjusted to <100 lux (light meter) before adding 5 μL 4×nickel chelate donor beads to the same wells. From this step on, the plate was covered with a black plate cover, centrifuged at 1000 rpm for 1 minute, and incubated at room temperature for 60 minutes.
Data were collected on a PHERAStar FSX (BMG LABTECH) using the AlphaLISA module (excitation: 680 nm, emission: 615 nm), with a gain of 3600. The excitation time was 0.30 seconds, and data collection started after a 0.04-second delay for a total integration time of 0.60 seconds.
The individual AlphaLISA counts of wells with exemplary MEK inhibitor compound were divided by the average AlphaLISA counts of wells without compound to obtain AlphaLISA signal/background ratio (S/B). The dissociation constant (KD) of MEK1-CRAF was calculated using nonlinear regression curve fit in GraphPad PRISM® 9.0 software.

Data set [4] can be described thus: Cassette pharmacokinetics studies in mice. The data set is classed as in vivo. The following applies: male, Balb/c, plasma; Mouse, PO, 5 mg/kg. As to the method:
Pharmacokinetics studies were conducted using cassette dosing protocols, with test compounds administered per mouse. Treatment groups were 3 mice (˜6-8 weeks old, ˜20-30 g Balb/c male mice) per route of administration. Compounds were formulated in 5% DMSO and 95% PEG400 with final concentrations of 0.5 mg/mL for IV and PO dosing. Compounds were dosed at 2 mg/kg for IV dosing and 5 mg/kg for PO dosing. Blood samples were withdrawn at 0.083, 0.25, 0.5, 1.0, 2.0, 4.0, 6.0, 8.0, and 24 hours following IV dosing, and 0.25, 0.5, 1.0, 2.0, 4.0, 6.0, 8.0, and 24 hours following PO dosing. Blood samples were centrifuged at 4,000 g for 5 minutes at 4° C. to obtain plasma samples. Plasma samples were diluted with acetonitrile containing internal standard, vortexed for 30 seconds, then centrifuged at 4,000 rpm for 15 minutes at 4° C. The supernatant was diluted with water, and compound concentration was determined by HPLC/MS/MS compared to calibration standards of 0.5-1,000 ng/mL.
Where route is listed as “IV*”, the compound was dosed IV at 1 mg/kg.

[5] abbreviates: Homo sapiens, read-out: pERK HCT-116 (G13D) ICW (4 hour): Average IC50 (nM).
[6] abbreviates: read-out: pERK HCT-116 (G13D) ICW (4 hour): Average IC50.

Where two headings read alike, the source gives them in different places.

Regarding `CNS(=O)(=O)Nc1cc(OC)cc(Oc2c(C(=O)NC3CC3)c(Nc3ccc(I)cc3F)n(C)c(=O)c2C)c1` [Compound I-25], the half-maximal inhibitory concentration (IC50) in data set [1] (setting [5]) and in data set [2] was 1000 to 10000 nM in each case.
`CNS(=O)(=O)Nc1cc(Oc2c(C(=O)NC3CC3)c(Nc3ccc(I)cc3F)n(C)c(=O)c2C)ccc1OC` [Compound I-18]: the IC50 was in the range of 1000 to 10000 nM in data set [1] (setting [5]) and 100 to 1000 nM in data set [2].
The corresponding values for `CNS(=O)(=O)Nc1cc(Oc2c(C(=O)NC3CC3)c(Nc3ccc(I)cc3F)n(C)c(=O)c2C)ccc1F` [Compound I-15] are 100 to 1000 nM and 100 to 1000 nM.
Take `CNS(=O)(=O)Nc1ccc(OC)c(Oc2c(C(=O)NC3CC3)c(Nc3ccc(I)cc3F)n(C)c(=O)c2C)c1` [Compound I-26]: the IC50 in data set [1] (setting [5]) and in data set [2] was 1000 to 10000 nM throughout.
In the case of `Cc1c(Oc2cccc(N=S(C)(N)=O)c2)c(C(=O)NC2CC2)c(Nc2ccc(I)cc2F)n(C)c1=O` (stereo in doubt) [Compound I-8, (R)-4-(3-((amino(methyl)oxo-lambda6-sulfaneylidene)amino)phenoxy)-N-cyclopropyl-2-((2-fluoro-4-iodophenyl)amino)-1,5-dimethyl-6-oxo-1,6-dihydropyridine-3-carboxamide], the IC50 in data set [1] (setting [5]) and in data set [2] was less than 100 nM throughout.
Turning to `CCNC(=O)c1c(Oc2cccc(NS(=O)(=O)NC)c2Cl)c(C)c(=O)n(C)c1Nc1ccc(I)cc1F` [Compound I-54], the “KD Ratio (mean), compound to DMSO” value in data set [3] (compound 0.01 μM) is listed as 0.58. For the same compound, in data set [3] (compound 0.1 μM), the “KD Ratio (mean), compound to DMSO” value was 0.36. The “KD Ratio (mean), compound to DMSO” value in data set [3] (compound 1 μM) was found to be 0.35. Moreover, in data set [4], the AUC(0-inf) was 4540 ng·h/mL, the AUC(0-t) stood at 4390 ng·h/mL, the peak level (Cmax) was 1670 ng/mL and the Tmax amounted to 0.5 h. In addition, in data set [4], the half-life is 1.6 h.
Turning to `Cc1c(Oc2ccc3c(c2)NS(=O)(=O)NC3)c(C(=O)NC2CC2)c(Nc2ccc(I)cc2F)n(C)c1=O` [Compound I-13], the IC50 in data set [1] (setting [5]) and in data set [2] was 100 to 1000 nM in each case.
As to `CNS(=O)(=O)Cc1cccc(Oc2c(C(=O)NC3CC3)c(Nc3ccc(I)cc3F)n(C)c(=O)c2C)c1` [Compound I-23, N-cyclopropyl-2-((2-fluoro-4-iodophenyl)amino)-1,5-dimethyl-4-(3-((N-methylsulfamoyl)methyl)phenoxy)-6-oxo-1,6-dihydropyridine-3-carboxamide], the values for the IC50 in data set [1] (setting [6]) and in data set [2] were 1000 to 10000 nM and 100 to 1000 nM, respectively.
For `Cc1c(Oc2ccc3c(c2)CN(C)S(=O)(=O)N3)c(C(=O)NC2CC2)c(Nc2ccc(I)cc2F)n(C)c1=O` [Compound I-60], the IC50 is less than 100 nM in data set [1] (setting [5]) and 100 to 1000 nM in data set [2].
The corresponding values for `CNS(=O)(=O)Nc1ccc(F)c(Oc2c(C(=O)NC3CC3)c(Nc3ccc(I)cc3F)n(C)c(=O)c2C)c1` [Compound I-17] are 100 to 1000 nM and 100 to 1000 nM.
The corresponding values for `Cc1c(Oc2cccc(CS(=O)(=O)N(C)C)c2)c(C(=O)NC2CC2)c(Nc2ccc(I)cc2F)n(C)c1=O` [Compound I-11] are 100 to 1000 nM and less than 100 nM.
The corresponding values for `Cc1c(Oc2cccc(NS(N)(=O)=O)c2)c(C(=O)NC2CC2)c(Nc2ccc(I)cc2F)n(C)c1=O` [Compound I-6] are less than 100 nM and less than 100 nM.
For the compound `CNS(=O)(=O)Nc1cccc(Oc2c(C(=O)NC3CC3)c(Nc3ccc(I)cc3F)n(C)c(=O)c2C)c1C` [Compound I-3], the IC50 in data set [1] (setting [5]) and in data set [2] was less than 100 nM in each case.
Turning to `CNS(=O)(=O)n1ccc2c(Oc3c(C(=O)NC4CC4)c(Nc4ccc(I)cc4F)n(C)c(=O)c3C)cccc21` [Compound I-12], the half-maximal inhibitory concentration (IC50) in data set [1] (setting [5]) was 1000 to 10000 nM; in data set [2] it was less than 100 nM.
As for `CNS(=O)(=O)Nc1cccc(Oc2c(C(=O)N(C)C3CC3)c(Nc3ccc(I)cc3F)n(C)c(=O)c2C)c1C` [Compound I-24], the IC50 was in the range of 100 to 1000 nM in data set [1] (setting [5]) and 1000 to 10000 nM in data set [2].
For `CNS(=O)(=O)Nc1cc(F)cc(Oc2c(C(=O)NC3CC3)c(Nc3ccc(I)cc3F)n(C)c(=O)c2C)c1` [Compound I-10], in that order: less than 100 nM and less than 100 nM.
For `Cc1c(Oc2ccc3c(c2)CNS(=O)(=O)N3C)c(C(=O)NC2CC2)c(Nc2ccc(I)cc2F)n(C)c1=O` [Compound I-61], the 50% inhibitory concentration (IC50) in data set [1] (setting [5]) and in data set [2] was 100 to 1000 nM throughout.
On to `CNS(=O)(=O)Nc1cccc(Oc2c(C(=O)NC3CC3)c(Nc3ccc(I)cc3F)n(C)c(=O)c2C)c1F` [Compound I-4, N-cyclopropyl-4-{2-fluoro-3-[(methylsulfamoyl)amino]phenoxy}-2-[(2-fluoro-4-iodophenyl)amino]-1,5-dimethyl-6-oxopyridine-3-carboxamide], for which the half-inhibitory concentration (IC50) in data set [1] (setting [5]) and in data set [2] was less than 100 nM in each case.
As for “N-cyclopropyl-2-[(2-fluoro-4-iodophenyl)amino]-4-(3-methanesulfonoimidamidophenoxy)-1,5-dimethyl-6-oxopyridine-3-carboxamide [Compound I-20]”, the IC50 in data set [1] (setting [6]) and in data set [2] was 100 to 1000 nM in each case.
`CNS(=O)(=O)Nc1cccc(Oc2c(C(=O)NC3CC3)c(Nc3ccc(I)cc3F)n(C)c(=O)c2C)c1` [Compound I-5, N-cyclopropyl-2-((2-fluoro-4-iodophenyl)amino)-1,5-dimethyl-4-(3-((N-methylsulfamoyl)amino)phenoxy)-6-oxo-1,6-dihydropyridine-3-carboxamide]: the IC50 in data set [1] (setting [5]) and in data set [2] was less than 100 nM in each case.
Consider `Cc1c(Oc2ccc3c(c2)CNS(=O)(=O)N3)c(C(=O)NC2CC2)c(Nc2ccc(I)cc2F)n(C)c1=O` [Compound I-59], for which the IC50 in data set [1] (setting [5]) and in data set [2] was 100 to 1000 nM each time.
In the case of `Cc1c(Oc2cccc(CS(N)(=O)=O)c2)c(C(=O)NC2CC2)c(Nc2ccc(I)cc2F)n(C)c1=O` [Compound I-16], the 50% inhibitory concentration (IC50) in data set [1] (setting [5]) and in data set [2] was 100 to 1000 nM throughout.
In the case of `Cc1c(Oc2cccc(N=S(C)(N)=O)c2)c(C(=O)NC2CC2)c(Nc2ccc(I)cc2F)n(C)c1=O` (stereo in doubt) [Compound I-7, (S)-4-(3-((amino(methyl)oxo-lambda6-sulfaneylidene)amino)phenoxy)-N-cyclopropyl-2-((2-fluoro-4-iodophenyl)amino)-1,5-dimethyl-6-oxo-1,6-dihydropyridine-3-carboxamide], the IC50 in data set [1] (setting [5]) and in data set [2] was less than 100 nM each time.
For `Cc1c(Nc2ccc3c(c2)CNS(=O)(=O)N3)c(C(=O)NC2CC2)c(Nc2ccc(I)cc2F)n(C)c1=O` [Compound I-62], the IC50 in data set [1] (setting [5]) and in data set [2] was less than 100 nM each time.
In the case of `CNS(=O)(=O)Nc1cc(Oc2c(C(=O)NC3CC3)c(Nc3ccc(I)cc3F)n(C)c(=O)c2C)ccc1C` [Compound I-22], the IC50 in data set [1] (setting [5]) lay within 1000 to 10000 nM; in data set [2], 100 to 1000 nM.
In the case of `CNS(=O)(=O)Nc1cccc(Oc2c(C(=O)NC(C)C)c(Nc3ccc(I)cc3F)n(C)c(=O)c2C)c1Cl` [Compound I-41], the “KD Ratio (mean), compound to DMSO” value in data set [3] (compound 0.01 μM) is on record as 0.79. The “KD Ratio (mean), compound to DMSO” value in data set [3] (compound 0.1 μM) was determined as 0.57. Also, in data set [3] (compound 1 μM), the “KD Ratio (mean), compound to DMSO” value was 0.48. Besides, in data set [4], the AUC(0-inf) was found to be 3470 ng·h/mL, the AUC(0-t) was found to be 3340 ng·h/mL, the Cmax came to 1260 ng/mL and the Tmax is 0.5 h. Moreover, the half-life in data set [4] was 1.62 h.
